Experiments:
Clostridium perfringens [1] = conditions: general common knowledge in the art; cited from earlier work
Clostridium perfringens [2] = type: in vivo, chickens; conditions: inferred from FIG. 3 and common knowledge

Compound: C[N+](C)(C)CC(=O)O [betaine]
- effectiveness against a C. perfringens challenge (Clostridium perfringens [1]): not effective
- effectiveness against an infection of C. perfringens (Clostridium perfringens [2]): does not result in the Clostridium infection being effectively treated

Reference: patent publication US7014863B2, “Additive for an animal feed” (priority 1999, dated 2006)
